From patent US20090054312A1, “SMIPs: Small molecule inhibitors of p27 depletion in cancers and other proliferative diseases” (priority 2007, published 2009)
Where two headings read alike, the source gives them in different places. One block for each molecule: values may come before it.

Key:
[1] = test system: IMR90 normal human fibroblasts; experiment: MTT viability assay, IMR90; assay type: cell-based; conditions: Table 4, read-out: IC50 (concentration of 50% growth inhibition), IMR90
Procedure: We next explored the effects of SMIPs on cell viability. […] IC50 values (concentration of 50% growth inhibition) were calculated (Table 4).

LNCaP-S14 cells = experiment: MTT viability assay, LNCaP-S14; assay type: cell-based, human; conditions: 72 h, Table 4, read-out: IC50 (concentration of 50% growth inhibition), LNCaP-S14
Procedure: We next explored the effects of SMIPs on cell viability. S14 and IMR90 cells were exposed to increasing concentrations of SMIPs for 72 h and scored for viability using the MTT assay. IC50 values (concentration of 50% growth inhibition) were calculated (Table 4).
We next compared IC50 values for cytotoxicity of SMIP004 in S14 compared with parental LNCaP cells. […] We are testing whether SMIP-induced cytotoxicity is due to apoptosis.

[2] = test system: p27 levels in LNCaP-S14 cells; experiment: p27 immunofluorescence screening assay in LNCaP-S14 cells; conditions: for accumulation of p27, fold-induction normalized to DMSO: IF assay, 16 hours
[3] = SMIP concentration 40 (maximum dose)

Structure (SMILES): O=C(CSC1=NNC(c2ccccn2)S1)c1cccc(F)c1 (stereo not shown) [SMIP018]
IC50 ([1]; 72 h): > 40 µM
IC50 (LNCaP-S14 cells): > 40 µM
accumulation of p27, fold-induction normalized to DMSO ([2]; SMIP concentration 1): 0.26 fold
accumulation of p27, fold-induction normalized to DMSO ([2]; SMIP concentration 5): 0.71 fold
accumulation of p27, fold-induction normalized to DMSO ([2]; SMIP concentration 10): 0.67 fold
accumulation of p27, fold-induction normalized to DMSO ([2]; SMIP concentration 20): 0.92 fold
accumulation of p27, fold-induction normalized to DMSO [2, 3]: 3.07 fold

Structure (SMILES): C/C=C(/C)C(=O)O[C@H]1C(C)=C2[C@H]([C@@H]1OC(=O)CCCCCCC)[C@@](C)(OC(C)=O)C[C@H](OC(=O)CCC)[C@@]1(O)[C@H]2OC(=O)[C@@]1(C)O [Thapsigargin, reference compound]
IC50 ([1]; Homo sapiens, IMR-90, 72 h): 0.0311 µM
IC50 (LNCaP-S14 cells; Homo sapiens): 0.0078 µM

Structure (SMILES): O=C(Nc1ccccc1)Nc1ccc(SCc2nc(OCC(F)(F)F)cc(OCC(F)(F)F)n2)cc1 [SMIP012]
IC50 ([1]; 72 h): ~10 µM
IC50 (LNCaP-S14 cells): 4.59 µM
accumulation of p27, fold-induction normalized to DMSO ([2]; SMIP concentration 1): 0.42 fold
accumulation of p27, fold-induction normalized to DMSO ([2]; SMIP concentration 5): 2.17 fold
accumulation of p27, fold-induction normalized to DMSO ([2]; SMIP concentration 10): 1.95 fold
accumulation of p27, fold-induction normalized to DMSO ([2]; SMIP concentration 20): 3.30 fold
accumulation of p27, fold-induction normalized to DMSO [2, 3]: 2.43 fold

Structure (SMILES): COc1ccc(S(=O)(=O)N(Cc2ccc(Cl)cc2)Cc2ccc3cc[nH]c3c2)cc1 [SMIP003]
IC50 ([1]; 72 h): 65.4 µM
IC50 (LNCaP-S14 cells): 15.9 µM
accumulation of p27, fold-induction normalized to DMSO ([2]; SMIP concentration 1): 0.38 fold
accumulation of p27, fold-induction normalized to DMSO ([2]; SMIP concentration 5): 0.54 fold
accumulation of p27, fold-induction normalized to DMSO ([2]; SMIP concentration 10): 0.99 fold
accumulation of p27, fold-induction normalized to DMSO ([2]; SMIP concentration 20): 1.83 fold
accumulation of p27, fold-induction normalized to DMSO [2, 3]: 3.18 fold

Structure (SMILES): COc1ccc(S(=O)(=O)Nc2cccc3cc(C(=O)NCc4ccc(Cl)cc4)[nH]c23)cc1 [SMIP016]
IC50 ([1]; 72 h): 4.41 µM
IC50 (LNCaP-S14 cells): 14.6 µM
accumulation of p27, fold-induction normalized to DMSO ([2]; SMIP concentration 1): 0.94 fold
accumulation of p27, fold-induction normalized to DMSO ([2]; SMIP concentration 5): 1.81 fold
accumulation of p27, fold-induction normalized to DMSO ([2]; SMIP concentration 10): 1.73 fold
accumulation of p27, fold-induction normalized to DMSO ([2]; SMIP concentration 20): 2.62 fold
accumulation of p27, fold-induction normalized to DMSO [2, 3]: 2.44 fold

Structure (SMILES): COc1cc([C@@H]2c3cc4c(cc3[C@@H](O[C@@H]3O[C@@H]5CO[C@@H](C)O[C@H]5[C@H](O)[C@H]3O)[C@H]3COC(=O)[C@H]23)OCO4)cc(OC)c1O [Etoposide, reference compound]
% positive ([2]; Table 1, compounds showing SMIP activity in the secondary screen, p27-positive cells, cell line not given): 39.92%
Z score ([2]; Table 1, standard deviations from plate mean, cell line not given): 25.6406

The next lines start with results.

IC50 (LNCaP-S14 cells): 13 µM
Structure (SMILES): CCC(=O)N(Cc1cccc(Cl)c1)c1ccc2[nH]c(C(C)(C)C)cc2c1 [SMIP015]
IC50 ([1]; 72 h): ~20 µM
accumulation of p27, fold-induction normalized to DMSO ([2]; SMIP concentration 1): 0.08 fold
accumulation of p27, fold-induction normalized to DMSO ([2]; SMIP concentration 5): 0.35 fold
accumulation of p27, fold-induction normalized to DMSO ([2]; SMIP concentration 10): 0.43 fold
accumulation of p27, fold-induction normalized to DMSO ([2]; SMIP concentration 20): 4.75 fold
accumulation of p27, fold-induction normalized to DMSO [2, 3]: 4.25 fold

IC50 (LNCaP-S14 cells): 18.2 µM
Structure (SMILES): COc1ccc(S(=O)(=O)Nc2ccc3[nH]c(C(C)(C)C)cc3c2)cc1 [SMIP013]
IC50 ([1]; 72 h): ~20 µM
accumulation of p27, fold-induction normalized to DMSO ([2]; SMIP concentration 1): −0.33 fold
accumulation of p27, fold-induction normalized to DMSO ([2]; SMIP concentration 5): −0.10 fold
accumulation of p27, fold-induction normalized to DMSO ([2]; SMIP concentration 10): 0.39 fold
accumulation of p27, fold-induction normalized to DMSO ([2]; SMIP concentration 20): 2.74 fold
accumulation of p27, fold-induction normalized to DMSO [2, 3]: 3.72 fold
